Results reported in patent US20070276008A1, “Pharmaceutical formulation comprising glycine as a stabilizer” (Eisai Company Limited, priority 1997, published 2007).
Where two headings read alike, the source gives them in different places.

Experiments:
[1] = Effect of storage conditions (light, temperature) on absorbance 400-650 nm; format: physicochemical; conditions: 2 mg/mL, 0.9% saline
Description: The effect of exposure to light and temperature was evaluated as a function of time for 0.9% saline solutions containing 2 mg/mL compound 1, with or without 10 mM glycine-NaOH buffer, was evaluated by monitoring absorbance at 400, 450, 500, 600, and 650 nm.

[2] = Discoloration on reconstitution in aqueous solutions for intravenous administration; format: physicochemical; conditions: e.g. 5% dextrose or 0.9% saline
Text: It has been found by the present inventors that anti-ulcerative compounds such as compound 1 and the compounds described by general formula I below discolor when they are reconstituted, i.e., dissolved, in aqueous solutions, particularly in solutions suitable for intravenous administration, e.g., 5% dextrose or 0.9% saline. Such solutions quickly turn yellow to yellow-brown.

[3] = Preliminary buffer evaluation (phosphate vs glycine-NaOH); format: physicochemical
Description: It is desirable that the pH of solutions of compound 1 and other compounds of the invention in 5% dextrose or normal saline remain in a range near about pH 10 to provide for an acceptable use period in a clinical setting. Phosphate and glycine buffer systems were tested.
Based on this propensity to precipitate, phosphate was disqualified as a buffer for the compounds of the invention.

[4] = format: physicochemical
Description: A, B, and C contain 7.5 mg/mL glycine, equal to 100 mM glycine. D and E have 11.25 mg/mL glycine, equal to 150 mM glycine. F is the control without glycine.

[5] = Glycine concentration and temperature studies: chemical stability (residual potency and impurity levels); format: physicochemical
Description: A, B, and C contain 7.5 mg/mL glycine, equal to 100 mM glycine. […] F is the control without glycine.

[6] = Reduced glycine concentration experiments: color change in 0.9% saline pH 10; format: physicochemical
Description: Absorption measurements were taken at the zero time point, and at 2, 4, 6, and 8 hours after dissolution. […] The glycine concentration-dependence of compound 1 discoloration was evaluated at […] after dissolution.

[7] = pH studies: chemical (HPLC) and physical (color) stability in water for injection; conditions: for Chemical and physical stability: 24 hours

COCCCOc1ccnc(C[S+]([O-])c2nc3ccccc3[nH]2)c1C (centres unmarked) [compound 1]
Effect of glycine-NaOH buffer on absorption ([1]; 10 mM glycine-NaOH, all wavelengths, temperatures, lighting conditions): decreases absorption | Effect of exposure to light on color development ([1]; with or without 10 mM glycine-NaOH): no detrimental effect | Color development with increasing storage temperature ([1]; without glycine-NaOH buffer): increase in undesirable color development | Color on reconstitution in aqueous solutions [2]: discolor | Color formation ([3]; 50 mM phosphate buffer, compared with unbuffered solutions): color formation was not inhibited | Discoloration ([3]; 100 mM glycine/NaOH, pH above 10): substantially slower | Appearance on reconstitution ([3]; phosphate-containing plugs): hazy solutions | Appearance after freeze-drying ([3]; solutions in phosphate and glycine buffers): white, well-formed plugs | Color formation ([4]; 5° C. compared to room temperature): significantly retarded | Discoloration ([4]; solutions devoid of glycine, regardless of temperature): discolored very quickly | Discoloration ([4]; solutions with greater glycine concentrations): discolored more slowly | Difference in chemical stability between glycine formulations ([5]; 0 mM, 100 mM and 150 mM glycine): No substantial difference | Increase in impurity levels ([5]; 5° C., pH 10.5 to 11, 24 hours): without measurable increases | Impurities measured ([5]; room temperature, pH 10.5, 24 hours): > 1% | Increase in impurities ([5]; room temperature, pH 11 solution, 24 hours): < 0.5% | Rate of discoloration (absorption) ([6]; 4 mg/mL, 0.9% saline pH 10, 25° C. dark, 0-8 hours, glycine-free vs 50 mM glycine): much greater rate | Difference in absorbance spectrum between glycine concentrations ([6]; 4 mg/mL, 0.9% saline pH 10, 5, 10, 25, 50 mM glycine-NaOH, 5 hours): little difference | Absorbance ([6]; 5 mM glycine-NaOH solution, 5 hours post-dissolution): noticeably higher absorbance | Order of chemical and physical stability by pH ([7]; 5° C. and room temperature, 8 mg/mL in WFI): pH 11.5>pH 11>pH 10.5>pH 10>pH 9.5 | Time until solutions began to assume a yellow color ([7]; pH 9.5, 8 mg/mL in WFI): ≤ 30 min | Chemical and physical stability ([7]; pH 10.5, cold temperatures (5° C.)): adequate | Chemical and physical stability ([7]; pH 10.5, room temperature): marginally stable | Stability for manufacture and handling in preparation for freeze drying ([7]; pH 11 or greater, cold temperatures): adequately stable
